In paper PMC3248787 (Bioorganic & medicinal chemistry letters, 2011):

Columns and labels:
[1] = test system: acetylated α-tubulin in HeLa cells; assay: immunofluorescence, acetylated α-tubulin in HeLa cells; format: cell-based; conditions: 16 h, normalized to DMSO control
[2] = test system: acetylated lysine in HeLa cells; assay: immunofluorescence, acetylated lysine in HeLa cells; format: cell-based; conditions: 16 h, normalized to DMSO control
trypsin = trypsin counter screen
purified HDAC8 = molecular target: T1, purified HDAC8 (Homo sapiens, UniProt Q9BY41); assay: small-molecule microarray; format: binding; conditions: SMM screen
T1 sequence (Q9BY41 1-377): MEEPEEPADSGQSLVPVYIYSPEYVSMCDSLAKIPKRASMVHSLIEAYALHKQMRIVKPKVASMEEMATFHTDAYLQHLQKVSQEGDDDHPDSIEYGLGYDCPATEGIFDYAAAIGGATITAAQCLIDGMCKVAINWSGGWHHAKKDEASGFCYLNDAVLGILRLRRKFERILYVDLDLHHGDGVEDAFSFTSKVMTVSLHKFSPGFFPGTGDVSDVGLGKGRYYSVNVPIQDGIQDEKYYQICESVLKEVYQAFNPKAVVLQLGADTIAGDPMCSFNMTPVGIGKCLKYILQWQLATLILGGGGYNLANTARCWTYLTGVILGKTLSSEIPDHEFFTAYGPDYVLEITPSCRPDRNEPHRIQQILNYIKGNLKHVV

| Structure (SMILES) | acetylated α-tubulin level [1] | acetylated lysine level [2] | interference with the proteolytic activity of trypsin (trypsin) | binding to purified HDAC8 on small-molecule microarray (purified HDAC8) |
| --- | --- | --- | --- | --- |
| Nc1ccccc1NC(=O)c1ccc(CNC(=O)OCc2cccnc2)cc1 [MS-275] | little change in tubulin acetylation | increased global lysine acetylation |  |  |
| CC(=O)Nc1ccc(C(=O)CSc2nc(C)cc(O)n2)cc1 [Compound 7] |  |  | does not interfere with the proteolytic activity of trypsin | binder |
| O=C(CCCCCCC(=O)Nc1ccccc1)NO [SAHA, suberoylanilide hydroxamic acid] | increases both global lysine and α-tubulin acetylation levels | increases both global lysine and α-tubulin acetylation levels |  |  |
